Measured values taken from patent publication US12281225B2, “Process for preparing stable polymers containing vinylimidazole” (BASF SE, priority 2018, dated 2025).

System: Yeast: Candida albicans, Candida valida, Rhodotorula rura, Saccharomyces cerevisiae
Test: Preservation test with periodic inoculation, yeast assessment
Format: cell-based
Details: for Start sample measurement, yeast assess., 4th inoculation: freshly formulated; for 60 d 40° C., yeast assess., 4th inoculation: sample stored 60 d at 40° C.
Procedure: Microbiological results at the start (freshly formulated, i.e. 4-week test series is started immediately) and after 60 days of storage at 40° C. (i.e. the 4-week microbial testing is started with the sample stored at 40° C. for 60 days)
The test described below is carried out in order to ascertain the preserving effect of chemical preservatives in aqueous products and systems, the principle of the described method reflecting the efficacy of chemical preservatives with respect to pot-maintenance of aqueous products/systems under conditions corresponding to the use of laundry products/consumer products by the consumer. For this purpose, the preservatives to be tested are added in those concentrations which correspond to from the literature or to the manufacturer data from the suppliers (e.g. Thor, Speyer). In said test, our orientation was toward the upper range, which, with the exception of VI-containing polymers, had always led to excellent results in the case of aqueous polymers for laundry.
A constant microorganism load is achieved by periodic inoculation of the test batches. Before the swabs of each batch made respectively immediately in parallel with the inoculation. The assessment is made on the basis of the microbial growth of the streaks.
When carrying out said tests, 25 g of the polymer to be tested are weighed in each case into a vessel with a screw cap. The preservatives to be tested are each added in separate batches according to the specified use concentrations. An unpreserved product sample was used in each case for the growth control. Two days after the addition of the preservative, the samples are infected with 0.5 ml of inoculum (2% w/w). The titer of this inoculant solution is 10^9 organisms per ml. The following microorganisms are the test organisms for the preservation test:
• Escherichia coli • Staphylococcus aureus • Pseudomonas aeruginosa • Pseudomonas putida • Burkholderia cepacia • Alcaligenes faecalis Yeast: • Candida albicans • Candida valida • Rhodotorula rura • Saccharomyces cerevisiae
The test batches are inoculated four times altogether and once a week and are streaked on an agar plate once a week; the first streaking is done immediately before the new inoculation. Microbial growth on the agar surface is assessed after a three-day incubation at 25° C. As a precaution, negative swabs are additionally observed for a further three days and reassessed. The preserving effect is effected in a semiquantitative method via the growth of the individual streaks in accordance with the assessment from − via + to +++. The preservative result is repeatedly demonstrably robust, i.e. +++− defines the microbial growth.
When assessing the results, it is assumed that a preservative can be regarded as good if there are batches under the above-described laboratory conditions for a period of four weeks without microbial invasion of the sample, and that, even after the fourth inoculation, no microbial attacks occur growth can be identified. • −−: no growth • −: slight growth, max. 100 colonies • 0: moderate growth, max. 400 colonies • +: uniform growth with individual colonies still easily identifiable • ++: strong growth; too many colonies to be counted, already some extensive growth

| Molecule | Start sample measurement, yeast assess., 4th inoculation (Polymer P1) | 60 d 40° C., yeast assess., 4th inoculation (Polymer P1) | Start sample measurement, yeast assess., 4th inoculation (Polymer P2) | 60 d 40° C., yeast assess., 4th inoculation (Polymer P2) | Start sample measurement, yeast assess., 4th inoculation (Polymer P3) | 60 d 40° C., yeast assess., 4th inoculation (Polymer P3) | Start sample measurement, yeast assess., 4th inoculation (Polymer P4) | 60 d 40° C., yeast assess., 4th inoculation (Polymer P4) | Start sample measurement, yeast assess., 4th inoculation (Polymer P5 (HP56)) | 60 d 40° C., yeast assess., 4th inoculation (Polymer P5 (HP56)) | Start sample measurement, yeast assess., 4th inoculation (Polymer P6) | 60 d 40° C., yeast assess., 4th inoculation (Polymer P6) | Start sample measurement, yeast assess., 4th inoculation (Polymer P7) | 60 d 40° C., yeast assess., 4th inoculation (Polymer P7) | Start sample measurement, yeast assess., 4th inoculation (Polymer P8) | 60 d 40° C., yeast assess., 4th inoculation (Polymer P8) | Start sample measurement, yeast assess., 4th inoculation (Polymer P9) | 60 d 40° C., yeast assess., 4th inoculation (Polymer P9) |
| --- | --- | --- | --- | --- | --- | --- | --- | --- | --- | --- | --- | --- | --- | --- | --- | --- | --- | --- |
| Cn1sc(Cl)cc1=O [CMIT, 5-chloro-N-methylisothiazolin-3-one] | − (slight growth, max. 100 colonies) | + | − (slight growth, max. 100 colonies) | + | − (slight growth, max. 100 colonies) | ++ | − (slight growth, max. 100 colonies) | + | − (slight growth, max. 100 colonies) | ++ | − (slight growth, max. 100 colonies) | + | − (slight growth, max. 100 colonies) | ++ | − (slight growth, max. 100 colonies) | 0 (moderate growth, max. 400 colonies) | − (slight growth, max. 100 colonies) | ++ |
| O=c1[nH]sc2ccccc12 [BIT, 1,2-benzisothiazolin-3-one] |  | + |  | ++ | − (slight growth, max. 100 colonies) | ++ | − (slight growth, max. 100 colonies) | ++ | − (slight growth, max. 100 colonies) | ++ | − (slight growth, max. 100 colonies) | ++ | − (slight growth, max. 100 colonies) | ++ |  | + | − (slight growth, max. 100 colonies) | ++ |
| CCCCCCCCn1sc(Cl)c(Cl)c1=O [DCOIT, dichloroctylisothiazolinone] | − (slight growth, max. 100 colonies) | + | − (slight growth, max. 100 colonies) | + | − (slight growth, max. 100 colonies) | ++ | − (slight growth, max. 100 colonies) | ++ | − (slight growth, max. 100 colonies) | ++ | − (slight growth, max. 100 colonies) | + | − (slight growth, max. 100 colonies) | ++ | − (slight growth, max. 100 colonies) | 0 (moderate growth, max. 400 colonies) | − (slight growth, max. 100 colonies) | ++ |
| CCCCNC(=O)OCC#CI [Iodopropynyl butyl carbamate, iodopropynyl butyl carbamate] | − (slight growth, max. 100 colonies) | + + | − (slight growth, max. 100 colonies) | + | − (slight growth, max. 100 colonies) | + | − (slight growth, max. 100 colonies) | ++ | − (slight growth, max. 100 colonies) | + | − (slight growth, max. 100 colonies) | + | − (slight growth, max. 100 colonies) | + | − (slight growth, max. 100 colonies) | + | − (slight growth, max. 100 colonies) | + |
| CCCCCCCCCCCCCCCC[N+](C)(C)Cc1ccccc1.[Cl-] [Polymer 16-BAC, cetylalkonium chloride] |  | − (slight growth, max. 100 colonies) | − (slight growth, max. 100 colonies) | − (slight growth, max. 100 colonies) | − (slight growth, max. 100 colonies) | − (slight growth, max. 100 colonies) | − (slight growth, max. 100 colonies) | − (slight growth, max. 100 colonies) | − (slight growth, max. 100 colonies) | − (slight growth, max. 100 colonies) | − (slight growth, max. 100 colonies) | − (slight growth, max. 100 colonies) | − (slight growth, max. 100 colonies) | − (slight growth, max. 100 colonies) |  | − (slight growth, max. 100 colonies) |  | − (slight growth, max. 100 colonies) |
| Cn1sccc1=O [MIT, methyl-4-isothiazolin-3-one] |  | 0 (moderate growth, max. 400 colonies) |  | + |  | ++ |  | ++ |  | ++ |  | ++ |  | ++ |  | + |  | ++ |
| benzalkonium chloride [BAC] |  | − (slight growth, max. 100 colonies) |  | − (slight growth, max. 100 colonies) |  | − (slight growth, max. 100 colonies) |  |  |  |  |  |  |  |  |  |  |  |  |
| CCCCCCCCn1sccc1=O [OIT, octylisothiazolinone] | − (slight growth, max. 100 colonies) | + | − (slight growth, max. 100 colonies) | ++ | 0 (moderate growth, max. 400 colonies) | ++ | 0 (moderate growth, max. 400 colonies) | ++ | 0 (moderate growth, max. 400 colonies) | ++ | 0 (moderate growth, max. 400 colonies) | ++ | 0 (moderate growth, max. 400 colonies) | ++ | − (slight growth, max. 100 colonies) | + | − (slight growth, max. 100 colonies) | ++ |
